Experimental data published in patent US20110301239A1, “USE OF NOVEL LIPID MEDIATORS TO INHIBIT ANGIOGENESIS” (The Brigham and Women's Hospital, Inc., priority 2008, published 2011).

Columns and labels:
[1] = test system: PMN infiltration; assay: Peritonitis model, PMN infiltration; assay type: in vivo
[2] = test system: IL-1β-induced corneal HA and LA; assay: Corneal micropocket assay, IL-1β pellet; assay type: in vivo, BALB/c mice; settings: day 7; for BV density: IL-1β micropellet, mean±SEM, n=4, vehicle 26.8±2.0%, significantly impaired; for reduction of LA: stimulated by IL-1β micropellet
Method: (§1) Six to eight-week-old male BALB/c (Taconic Farms, Germantown, N.Y.) mice were used in all experiments. All experimental protocols were approved by the Schepens Eye Research Institute Animal Care and Use Committee, and all animals were treated according to the Association for Research in Vision and Ophthalmology Statement for the Use of Animals in Ophthalmic and Vision Research.
(§2) The corneal micropocket assay in mice and quantification of the resultant NV has been described previously.^16,17 In brief, 0.3 μl of hydron pellets (IFN Sciences, New Brunswick, N.J.) containing 30 ng of murine IL-1β (R&D Systems, Minneapolis, Minn.) or 200 ng of VEGF-A (gift from BRB Preclinical Repository, National Cancer Institute) were prepared and implanted into the corneal stroma of male BALB/c mice. After 7 days the animals were sacrificed and the corneas were harvested for quantitative analysis of HA and LA.
(§3) BALB/c mice were randomized to receive RvD1, RvE1 or vehicle (normal saline) by subconjunctival injection in a masked fashion after suture or hydron pellet placement. The compounds were administered at a dose of 100 ng/10 μl per mouse every 48 h after suture or pellet placed. For these experiments, RvD1 and RvE1 were prepared by total organic synthesis as reported previously,^17,18 in the total organic synthesis core for NIH P-50 DE0169191. The physical properties were monitored routinely via LC/MS/MS matching the reported biological and physical properties prior to analysis in present experiments.
(§4) Full thickness corneal tissue or 8 μm-frozen sections were fixed in acetone for 15 minutes at room temperature. To block non-specific staining, anti-FcR mAb ([…], FcγIII/II receptor) or 10% goat serum was used before primary antibodies or isotype-matched control antibodies were applied at 4° C. overnight. Thereafter, samples were incubated with secondary antibodies at RT. Each step was followed by three thorough washings in PBS for 5-10 minutes. Finally, the samples were covered with mounting medium (Vector Laboratories, Burlingame, Calif.) and analyzed by epifluorescence microscopy (Eclipse E800; Nikon, Tokyo, Japan). […]
(§5) To quantify corneal angiogenesis, digital pictures of corneal flat-mounts were taken using an image analysis system (Spot Image Analysis, Diagnostic Instruments, Sterling Heights, Mich.). The areas covered by CD31^high/LYVE-1^−-vessels (blood vessels) or CD31^lowLYVE-1^high vessels (lymphatics) were measured morphometrically using NIH Image J software (version 1.34s; http://rsb.info.nih.gov/ij). […] The vessel density was calculated by the proportion of neovascularized area to the whole corneal area.

[3] = test system: suture-induced corneal NV; assay: Suture-induced inflammatory corneal angiogenesis (slit-lamp NV score, CD31/LYVE-1 vessel density); assay type: in vivo, BALB/c mice; settings: for angiogenic response (corneal neovessels by slit lamp biomicroscopy): 2-week time course, subconjunctival every 48 h, relative to vehicle control; for significant changes in the density of lymphatic vessels / BV density (CD31high/LYVE-1−): day 14 after suture placement; for significant changes in the density of lymphatic vessels: relative to vehicle controls; for BV density (CD31high/LYVE-1−): mean±SEM, n=6, vehicle 23.18±1.12%
Method: as §1
(§6) The standard model for induction of inflammatory corneal NV is associated with development of intrastromal vessels in close association with a mixed-cell (primarily neutrophilic) infiltrate.^14,15 Three interrupted sutures (11-0 nylon, Sharpoint; Vanguard, Houston, Tex.) were placed intrastromally with two stromal incursions extending over 120° of the corneal circumference each to induce inflammatory corneal NV, which is also associated with significant LA, as described previously.^14 The corneas were followed by slit-lamp biomicroscopy for corneal NV development. NV was graded between 0 and 3, with increments of 0.5, using a grid system per each corneal quadrant based on the centripetal extent of the neovascular branches from the limbus. Scores for each quadrant then summed to derive the NV index (range 0 to 12) for each eye, as previously described.^14
as §3
(§7) Full thickness corneal tissue or 8 μm-frozen sections were fixed in acetone for 15 minutes at room temperature. To block non-specific staining, anti-FcR mAb ([…], FcγIII/II receptor) or 10% goat serum was used before primary antibodies or isotype-matched control antibodies were applied at 4° C. overnight. Thereafter, samples were incubated with secondary antibodies at RT. Each step was followed by three thorough washings in PBS for 5-10 minutes. Finally, the samples were covered with mounting medium (Vector Laboratories, Burlingame, Calif.) and analyzed by epifluorescence microscopy (Eclipse E800; Nikon, Tokyo, Japan). The following antibodies were used: FITC-conjugated rat anti-mouse CD31 (Santa Cruz Biotechnology, Santa Cruz, Calif.), purified rat anti-mouse neutrophil (NIMP-R14, Abcam, Cambridge, Mass.), purified rat anti-mouse F4/80 (Novus Biologicals, Littleton, Colo.) and purified rabbit anti-mouse LYVE-1 (Abcam, Cambridge, Mass.). The secondary antibodies were Rodamine-conjugated donkey anti-rabbit IgG and Rodamine-conjugated goat anti-rat IgG (Santa Cruz Biotechnology, Santa Cruz, Calif.). Isotype controls included FITC-conjugated rat IgG2a, purified rat IgG2b, and purified rabbit IgG (Santa Cruz Biotechnology, Santa Cruz, Calif.).
To quantify corneal angiogenesis, digital pictures of corneal flat-mounts were taken using an image analysis system (Spot Image Analysis, Diagnostic Instruments, Sterling Heights, Mich.). The areas covered by CD31^high/LYVE-1^−-vessels (blood vessels) or CD31^lowLYVE-1^high vessels (lymphatics) were measured morphometrically using NIH Image J software (version 1.34s; http://rsb.info.nih.gov/ij). The total corneal area was outlined using the inner-most vessel of the limbal arcade as the border. The vessel density was calculated by the proportion of neovascularized area to the whole corneal area.

[4] = test system: VEGF-C; assay: Real-time PCR of VEGF-C mRNA in suture-inflamed corneas; assay type: in vivo, BALB/c mice; settings: 24 h and 72 h after suture placement, vs vehicle-treated group
Method: as §1, with “Research. […]” for “Research.”
(§8) BALB/c mice were randomized to receive RvD1, RvE1 or vehicle (normal saline) by subconjunctival injection in a masked fashion after suture or hydron pellet placement. […] The physical properties were monitored routinely via LC/MS/MS matching the reported biological and physical properties prior to analysis in present experiments. […]
(§9) A combined-method for total RNA isolation was employed, using Trizol (Invitrogen Corp., Carlsbad, Calif.) and RNeasy MinElute Spin Columns (Qiagen, Valencia, Calif.), as described previously.^21 Reverse transcription of total RNA was conducted using oligo(dT)20 primer and Superscript™ III Reverse Transcriptase (Invitrogen, Carlsbad, Calif.). […] The mean density of each band was measured by using NIH image J software. […]

[5] = test system: VEGF-A; assay: Real-time PCR of VEGF-A mRNA in suture-inflamed corneas; assay type: in vivo, BALB/c mice; settings: 24 h and 72 h after suture placement, vs vehicle-treated group
Method: as §1, with “Research. […]” for “Research.”
as §8, §9

[6] = test system: VEGFR-3; assay: Real-time PCR of VEGFR-3 mRNA in suture-inflamed corneas; assay type: in vivo, BALB/c mice; settings: relative to vehicle-treated controls
Method: as §1, with “Research. […]” for “Research.”
as §8, §9

[7] = test system: VEGFR-2; assay: Real-time PCR of VEGFR-2 mRNA in suture-inflamed corneas; assay type: in vivo, BALB/c mice; settings: 24 h and 72 h after suture placement, vs vehicle-treated group
Method: as §1, with “Research. […]” for “Research.”
as §8, §9

[8] = test system: TNF-α; assay: Real-time PCR of TNF-α mRNA in suture-inflamed corneas; assay type: in vivo, BALB/c mice; settings: vs vehicle
Method: as §1, §6, §3
Corneas were carefully dissected to ensure that the conjunctival and iris tissues were not included. To extract mRNA from whole-thickness corneas, two corneas were pooled as a sample in each group. To extract mRNA from corneal epithelial and stroma-endothelial layers separately, intact corneas were placed in 30 μl of RNA stabilization reagent (RNAlater, Qiagen, Valencia, Calif.) at 4° C. overnight and then stored at −30° C. for 2-3 days. […]
as §9

[9] = test system: VEGF-D; assay: Real-time PCR of VEGF-D mRNA in suture-inflamed corneas; assay type: in vivo, BALB/c mice; settings: relative to vehicle-treated controls
Method: as §1, with “Research. […]” for “Research.”
as §8, §9

[10] = test system: VEGF-A-induced corneal HA and LA; assay: Corneal micropocket assay, VEGF-A pellet; assay type: in vivo, BALB/c mice; settings: day 7; for BV density: VEGF-A micropellet, mean±SEM, n=4, vehicle 14.75±3.8%, not significantly lower; for reduction of LA: stimulated by VEGF-A micropellet
Method: as §1, §2, §3, §4, §5

[11] = test system: neutrophils; assay: Neutrophil infiltration in suture-inflamed corneas (anti-neutrophil NIMP-R14 staining of cross-sections); assay type: in vivo, BALB/c mice; settings: for neutrophils in inflamed cornea: 100 ng/10 μl subconjunctival at 0 h and 48 h, mean±SEM, n=3; for inhibition of neutrophils recruitment into the inflamed corneas: at 24 and 72 h, compared to vehicle-treated group, p<0.05
Method: as §1, §6, §3, §7

[12] = test system: macrophages; assay: Macrophage infiltration in suture-inflamed corneas (anti-F4/80 staining of cross-sections); assay type: in vivo, BALB/c mice; settings: 72 h after suture placement; 100 ng/10 μl subconjunctival; mean±SEM, n=3; vehicle 83±3
Method: as §1, with “Research. […]” for “Research.”
BALB/c mice were randomized to receive RvD1, RvE1 or vehicle (normal saline) by subconjunctival injection in a masked fashion after suture or hydron pellet placement. […] The physical properties were monitored routinely via LC/MS/MS matching the reported biological and physical properties prior to analysis in present experiments.
Full thickness corneal tissue or 8 μm-frozen sections were fixed in acetone for 15 minutes at room temperature. […] Finally, the samples were covered with mounting medium (Vector Laboratories, Burlingame, Calif.) and analyzed by epifluorescence microscopy (Eclipse E800; Nikon, Tokyo, Japan). […]

[13] = test system: IL-1α; assay: Real-time PCR of IL-1α mRNA in suture-inflamed corneas; assay type: in vivo, BALB/c mice; settings: 24 h and 72 h after suture placement, vs vehicle
Method: as §1, with “Research. […]” for “Research.”
as §8, §9

[14] = 24 h after suture placement, vehicle 81±6
[15] = 72 h after suture placement, vehicle 57±4

| Structure (SMILES) | BV density [2] [%] | reduction of LA [2] | angiogenic response (corneal neovessels by slit lamp biomicroscopy) [3] | significant changes in the density of lymphatic vessels [3] | BV density (CD31high/LYVE-1−) [3] [%] | mRNA expression of VEGF-C [4] | mRNA expression of VEGF-A [5] | mRNA expression of VEGFR-3 [6] | mRNA expression of VEGFR-2 [7] | increases in TNF-α expression (mRNA) ([8]; 24 h after suture placement) | increases in TNF-α expression (mRNA) ([8]; 72 h after suture placement) | mRNA expression of VEGF-D [9] | BV density [10] [%] | reduction of LA [10] | neutrophils in inflamed cornea [11, 14] [cells/section] | neutrophils in inflamed cornea [11, 15] [cells/section] | inhibition of neutrophils recruitment into the inflamed corneas [11] [%] | macrophage in inflamed cornea [12] [cells/section] | expression of IL-1α (mRNA) [13] | other results |
| --- | --- | --- | --- | --- | --- | --- | --- | --- | --- | --- | --- | --- | --- | --- | --- | --- | --- | --- | --- | --- |
| CCC(O)/C=C/C=C\C/C=C\C/C=C\C=C\[C@@H](O)CCCC(=O)O (mixture of isomers) [5S, 18 (+/−)-diHEPA] |  |  |  |  |  |  |  |  |  |  |  |  |  |  |  |  |  |  |  | anti-inflammatory activity, PMN infiltration [1]: downregulation of PMN infiltration; potency compared with Resolvin E1 ([1]; at an equal dose amount): equipotent to Resolvin E1 |
| CC[C@@H](O)/C=C/C=C\C[C@@H](O)/C=C/C=C/C=C\[C@@H](O)CCCC(=O)O [RvE1, 5S,12R,18R-trihydroxy-6Z,8E,10E,14Z,16E-EPA] | 18.6±2.2 | no significant reduction | significant suppression | not observed | 10.92±0.53 | lower mRNA expressions | lower mRNA expressions | not significantly altered | lower mRNA expressions | significantly suppressed | significant lowering | not significantly altered | 14.1±2.2 | no significant reduction | 52±4 | 41±4 | ~30 | 49±7 | not significantly altered |  |
| CC/C=C\C[C@H](O)/C=C/C=C\C=C\C=C\[C@@H](O)[C@@H](O)C/C=C\CCC(=O)O [RvD1, 7S,8R,17S-trihydroxy-4Z,9E,11E,13Z,15E,19Z-docosahexaenoic acid] | 17.1±2.4 | no significant reduction | significant suppression | not observed | 8.4±0.39 | lower mRNA expressions | lower mRNA expressions | not significantly altered | lower mRNA expressions | significantly suppressed | not at 72 h | not significantly altered | 10.9±2.3 | no significant reduction | 62±4 | 40±3 | ~30 | 57±4 | not significantly altered |  |
